These results are taken from patent US20250163057A1, “DCN-1 MODULATING COMPOUNDS AND METHODS OF USE THEREOF” (Cellarity, Inc., priority 2023, published 2025).

One may read the IC50 as the point on the concentration scale where inhibition reaches its midpoint.

Each structure is given as a SMILES string. Where two headings read alike, the source gives them in different places.

The target of experiment [1] is DCN1 (DCUND1) protein PONY domain (Homo sapiens (Human), UniProt Q96GG9). Briefly: TR-FRET assay, DCN1 binding with FAM-labeled probe. In outline: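 Binding was read as the TR-FRET ratio between a FAM-tagged inhibitor probe and Tb-labeled biotinylated E. coli-expressed DCN1 PONY domain, measured 1, 5 and 24 h after compound addition. The two setups used 5 nM protein/20 nM FAM-probe or 0.31 nM protein/900 nM total probe (100 nM labeled), in TritonX buffer with 200 mM NaCl.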
Sequence of DCN1 (DCUND1) protein PONY domain (Q96GG9 60-248): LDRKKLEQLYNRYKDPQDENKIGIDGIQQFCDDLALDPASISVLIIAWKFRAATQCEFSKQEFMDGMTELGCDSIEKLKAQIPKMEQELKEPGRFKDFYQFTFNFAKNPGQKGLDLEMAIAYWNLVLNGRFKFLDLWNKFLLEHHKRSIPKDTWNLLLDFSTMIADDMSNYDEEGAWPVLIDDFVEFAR

The target of the next experiment is DCN1 protein (Homo sapiens (Human), UniProt Q96GG9). Briefly: Intact Protein MS Analysis with the RapidFire-TOF System (covalent adduct formation). In kind it is binding. Particulars: MS Emax; 400 nM DCN1, 3 hours at room temperature. In outline: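 Tag-cleaved human DCN1 (400 nM) expressed in E. coli, in 25 mM Tris-HCl, 200 mM NaCl, 1 mM DTT, was incubated with 11 compound concentrations for 3 h at room temperature and quenched with 0.2% formic acid. Intact-protein Q-TOF MS with deconvolution detected the compound adduct mass.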
Sequence of DCN1 protein (Q96GG9 whole entry): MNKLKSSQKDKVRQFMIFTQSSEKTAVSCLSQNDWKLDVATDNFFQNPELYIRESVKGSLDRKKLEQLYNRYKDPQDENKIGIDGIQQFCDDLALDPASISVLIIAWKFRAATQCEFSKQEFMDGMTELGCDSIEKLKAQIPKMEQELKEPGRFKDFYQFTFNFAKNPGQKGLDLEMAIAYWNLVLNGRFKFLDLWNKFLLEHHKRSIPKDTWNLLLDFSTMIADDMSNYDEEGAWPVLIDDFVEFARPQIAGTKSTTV

Experiment [2] has as its system Cullin-3 (CUL3) neddylation. The experiment in a line: AlphaLISA assay for Cullin-3 (CUL3) neddylation in TF 1 cells. In kind it is cell-based. Particulars: 3 hours treatment. An outline of the steps:
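Neddylated CUL3 was quantified by AlphaLISA in lysates of TF 1 cells exposed for 3 h to test compound in IMDM without supplements. Percent inhibition set between vehicle and 1 μM DI-1548 positive control; IC50 derived by Hill-equation fitting of dose-response curves.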

The mark [3] stands for this setting: 24 hr after treatment with compound, read-out: TR FRET IC50 24 hr.
[4] abbreviates: read-out: TR FRET IC50 1 hr, 1 hr after treatment with compound.
Where [5] appears, read: TR FRET IC50 1 hr (nM), 1 hr after treatment with compound.

Regarding `CCN1C(=O)[C@@H](NC(=O)c2cccc(C(F)(F)F)c2)[C@@H](c2ccc(F)cc2)c2c(C(=O)N(CC#N)CCCN(C)C)nn(-c3ccccc3)c21` (racemic) [Compound I-271], the IC50 was not above 200 nM in experiment [1] (setting [3]); not above 200 nM in experiment [1] (setting [4]); not above 100 nM in experiment [2] (Homo sapiens, TF-1, 3 h). Besides, the “% Adduct Formation” value at DCN1 protein is “+++ (MS Emax % adduct formation greater than 80.0 and less than or equal to 100.0)”.

For the molecule `CCN1C(=O)[C@@H](NC(=O)c2cccc(C(F)(F)F)c2)[C@@H](c2ccc(F)cc2)c2c(C(=O)N(C)CC#N)nn(-c3ccccc3)c21` (racemic) [Compound I-282], the IC50 in experiment [1] (setting [3]) was not above 200 nM; in experiment [1] (setting [4]), not above 200 nM; in experiment [2], not above 100 nM. The “% Adduct Formation” value at DCN1 protein is “+++ (MS Emax % adduct formation greater than 80.0 and less than or equal to 100.0)”.

As for `CCN1C(=O)[C@@H](NC(=O)c2cccc(C(F)(F)F)c2)[C@@H](c2ccc(F)cc2)c2c(C(=O)N(CC#N)CCN3CCOCC3)nn(-c3ccccc3)c21` (racemic) [Compound I-320], the IC50 is not above 200 nM in experiment [1] (setting [3]); not above 200 nM in experiment [1] (setting [4]); not above 100 nM in experiment [2] (Homo sapiens, TF-1, 3 h). Also, the “% Adduct Formation” value at DCN1 protein is “+++ (MS Emax % adduct formation greater than 80.0 and less than or equal to 100.0)”.

`CCN1C(=O)[C@@H](NC(=O)c2cccc(C(F)(F)F)c2)[C@@H](c2ccc(F)cc2)c2c(C(=O)N(CC#N)CCN(C)C3COC3)nn(-c3ccccc3)c21` (racemic) [Compound I-321]: the IC50 in experiment [1] (setting [3]) was not above 200 nM; in experiment [1] (setting [4]) it was not above 200 nM; in experiment [2] (Homo sapiens, TF-1, 3 h), not above 100 nM. For the same molecule, the “% Adduct Formation” value on DCN1 protein was “+++ (MS Emax % adduct formation greater than 80.0 and less than or equal to 100.0)”.

With `CCN1C(=O)[C@@H](NC(=O)c2cccc(C(F)(F)F)c2)[C@@H](c2ccc(F)cc2)c2c(C(=O)N(C)[C@@H](C#N)CCO)nn(-c3ccccc3)c21` (relative stereo) [Compound I-290, (4S,5S)—N-[(1R*)-1-cyano-3-hydroxypropyl]-7-ethyl-4-(4-fluorophenyl)-N-methyl-6-oxo-1-phenyl-5-[3-(trifluoromethyl)benzamido]-4H,5H-pyrazolo[3,4-b]pyridine-3-carboxamide], the IC50 in experiment [1] (setting [3]) was not above 200 nM; in experiment [1] (setting [5]), not above 200 nM; in experiment [2] (Homo sapiens, TF-1, 3 h), not above 100 nM. Also, the “% Adduct Formation” value at DCN1 protein was “+ (MS Emax % adduct formation greater than or equal to 0.0 and less than or equal to 30.0)”.

Consider `CCN1C(=O)[C@@H](NC(=O)c2cccc(C(F)(F)F)c2)[C@@H](c2ccc(F)cc2)c2c(C(=O)N(C)[C@H](C#N)CCO)nn(-c3ccccc3)c21` (relative stereo) [Compound I-301, (4S,5S)—N-[(1S*)-1-cyano-3-hydroxypropyl]-7-ethyl-4-(4-fluorophenyl)-N-methyl-6-oxo-1-phenyl-5-[3-(trifluoromethyl)benzamido]-4H,5H-pyrazolo[3,4-b]pyridine-3-carboxamide], for which the concentration for half-maximal inhibition (IC50) in experiment [1] (setting [3]) is not above 200 nM; in experiment [1] (setting [5]), not above 200 nM; in experiment [2] (Homo sapiens, TF-1, 3 h) it was not above 100 nM. Moreover, the “% Adduct Formation” value on DCN1 protein is “++ (MS Emax % adduct formation greater than 30.0 and less than or equal to 80.0)”.

In the case of `CCN1C(=O)[C@@H](NC(=O)c2cccc(C(F)(F)F)c2)[C@@H](c2ccc(F)cc2)c2c(C(=O)N(C)[C@H](C)C#N)nn(-c3ccccc3)c21` (single isomer, unassigned) [Compound I-289, (4S,5S)—N—((R*)-1-cyanoethyl)-7-ethyl-4-(4-fluorophenyl)-N-methyl-6-oxo-1-phenyl-5-(3-(trifluoromethyl)benzamido)-4,5,6,7-tetrahydro-1H-pyrazolo[3,4-b]pyridine-3-carboxamide], the IC50 in experiment [1] (setting [3]) was not above 200 nM; in experiment [1] (setting [5]), not above 200 nM; in experiment [2] (Homo sapiens, TF-1, 3 h), not above 100 nM. In addition, the “% Adduct Formation” value on DCN1 protein is “+++ (MS Emax % adduct formation greater than 80.0 and less than or equal to 100.0)”.

With `CCN1C(=O)[C@@H](NC(=O)c2cccc(C(F)(F)F)c2)[C@@H](c2ccc(F)cc2)c2c(C(=O)N(C)[C@@H](C#N)C3COC3)nn(-c3ccccc3)c21` (single isomer, unassigned) [Compound I-291], the IC50 in experiment [1] (setting [3]) is not above 200 nM; in experiment [1] (setting [4]) it was not above 200 nM; in experiment [2] (Homo sapiens, TF-1, 3 h), not above 100 nM. At DCN1 protein, the “% Adduct Formation” value is “+++ (MS Emax % adduct formation greater than 80.0 and less than or equal to 100.0)”.

Turning to `CCN1C(=O)[C@H](NC(=O)c2cccc(C(F)(F)F)c2)[C@H](c2ccc(F)cc2)c2c(C(=O)N3CCOCC3C#N)nn(-c3ccccc3)c21` (single isomer, unassigned) [Compound I-296], the IC50 in experiment [1] (setting [3]) is not above 200 nM; in experiment [1] (setting [5]), 1000 to 3000 nM; in experiment [2] (Homo sapiens, TF-1, 3 h), not above 100 nM. Moreover, at DCN1 protein, the “% Adduct Formation” value is “++ (MS Emax % adduct formation greater than 30.0 and less than or equal to 80.0)”.

Consider `CCN1C(=O)[C@@H](NC(=O)c2cccc(C(F)(F)F)c2)[C@@H](c2ccc(F)cc2)c2c(C(=O)N(C)[C@@H](C)C#N)nn(-c3ccccc3)c21` (single isomer, unassigned) [Compound I-300, (4S,5S)—N—((S*)-1-cyanoethyl)-7-ethyl-4-(4-fluorophenyl)-N-methyl-6-oxo-1-phenyl-5-(3-(trifluoromethyl)benzamido)-4,5,6,7-tetrahydro-1H-pyrazolo[3,4-b]pyridine-3-carboxamide], for which the IC50 in experiment [1] (setting [3]) is not above 200 nM; in experiment [1] (setting [5]), not above 200 nM; in experiment [2] (Homo sapiens, TF-1, 3 h) it was not above 100 nM. For the same molecule, at DCN1 protein, the “% Adduct Formation” value was “+++ (MS Emax % adduct formation greater than 80.0 and less than or equal to 100.0)”.

`CCN1C(=O)[C@@H](NC(=O)c2cccc(C(F)(F)F)c2)[C@@H](c2ccc(F)cc2)c2c(C(=O)N(C)[C@@H](C#N)CCN(C)C3COC3)nn(-c3ccccc3)c21` (single isomer, unassigned) [Compound I-311]: the IC50 in experiment [1] (setting [3]) was not above 200 nM; in experiment [1] (setting [4]) it was not above 200 nM; in experiment [2] (Homo sapiens, TF-1, 3 h), not above 100 nM. Also, at DCN1 protein, the “% Adduct Formation” value was “+ (MS Emax % adduct formation greater than or equal to 0.0 and less than or equal to 30.0)”.

Regarding `CCN(CC#N)C(=O)c1nn(-c2ccccc2)c2c1[C@H](c1ccc(F)cc1)[C@H](NC(=O)c1cccc(C(F)(F)F)c1)C(=O)N2CC` (stereo in doubt) [Compound I-283], the IC50 in experiment [1] (setting [3]) is not above 200 nM; in experiment [1] (setting [4]), not above 200 nM; in experiment [2] (Homo sapiens, TF-1, 3 h), not above 100 nM. The “% Adduct Formation” value at DCN1 protein was “+++ (MS Emax % adduct formation greater than 80.0 and less than or equal to 100.0)”.

For the molecule `CCN1C(=O)[C@@H](NC(=O)c2cccc(C(F)(F)F)c2)[C@@H](c2ccc(F)cc2)c2c(C(=O)N(CC#N)C3CC3)nn(-c3ccccc3)c21` (stereo in doubt) [Compound I-284], the IC50 was not above 200 nM in experiment [1] (setting [3]); not above 200 nM in experiment [1] (setting [4]); not above 100 nM in experiment [2] (Homo sapiens, TF-1, 3 h). Besides, the “% Adduct Formation” value at DCN1 protein was “+++ (MS Emax % adduct formation greater than 80.0 and less than or equal to 100.0)”.

On to `CCN1C(=O)[C@@H](NC(=O)c2cccc(C(F)(F)F)c2)[C@@H](c2ccc(F)cc2)c2c(C(=O)N(CC#N)CCO)nn(-c3ccccc3)c21` (stereo in doubt) [Compound I-286], for which the IC50 is not above 200 nM in experiment [1] (setting [3]); not above 200 nM in experiment [1] (setting [4]); not above 100 nM in experiment [2] (Homo sapiens, TF-1, 3 h). Further, the “% Adduct Formation” value at DCN1 protein is “+ (MS Emax % adduct formation greater than or equal to 0.0 and less than or equal to 30.0)”.

Take `CCN1C(=O)[C@@H](NC(=O)c2cccc(C(F)(F)F)c2)[C@@H](c2ccc(F)cc2)c2c(C(=O)N(CC#N)CC(=O)OC)nn(-c3ccccc3)c21` (stereo in doubt) [Compound I-287]: the IC50 in experiment [1] (setting [3]) was not above 200 nM; in experiment [1] (setting [4]) it was not above 200 nM; in experiment [2] (Homo sapiens, TF-1, 3 h) it was not above 100 nM. Besides, the “% Adduct Formation” value on DCN1 protein is “+++ (MS Emax % adduct formation greater than 80.0 and less than or equal to 100.0)”.

Consider `CCN1C(=O)[C@@H](NC(=O)c2cccc(C(F)(F)F)c2)[C@@H](c2ccc(F)cc2)c2c(C(=O)N(CC#N)CCC(=O)OC)nn(-c3ccccc3)c21` (stereo in doubt) [Compound I-288], for which the IC50 is not above 200 nM in experiment [1] (setting [3]); not above 200 nM in experiment [1] (setting [4]); not above 100 nM in experiment [2] (Homo sapiens, TF-1, 3 h). In addition, the “% Adduct Formation” value on DCN1 protein was “+++ (MS Emax % adduct formation greater than 80.0 and less than or equal to 100.0)”.

Regarding `CCN1C(=O)[C@H](NC(=O)c2cccc(C(F)(F)F)c2)[C@H](c2ccc(F)cc2)c2c(C(=O)N3CCC[C@H]3C#N)nn(-c3cccc(OCCCN4CC5(COC5)C4)c3)c21` (stereo in doubt) [Compound I-293], the IC50 in experiment [1] (setting [3]) was not above 200 nM; in experiment [1] (setting [5]), not above 200 nM; in experiment [2] (Homo sapiens, TF-1, 3 h), not above 100 nM. Also, the “% Adduct Formation” value at DCN1 protein is “+++ (MS Emax % adduct formation greater than 80.0 and less than or equal to 100.0)”.

With `C=C(CN1CC2(COC2)C1)C(=O)NCc1nn(-c2ccccc2)c2c1[C@H](c1ccc(F)cc1)[C@H](NC(=O)c1cccc(C(F)(F)F)c1)C(=O)N2CC` [Compound I-138], the half-maximal inhibitory concentration (IC50) in experiment [1] (setting [3]) was not above 200 nM; in experiment [1] (setting [4]), not above 200 nM; in experiment [2] (Homo sapiens, TF-1, 3 h) it was not above 100 nM. Moreover, the “% Adduct Formation” value at DCN1 protein was “+++ (MS Emax % adduct formation greater than 80.0 and less than or equal to 100.0)”.
